biological target: T1, human mincle CRD (Homo sapiens, UniProt Q9ULY5); experiment: competition with […]-Man31-BSA on immobilised CRD; assay type: binding
T1 construct: gene CLEC4E; C-terminal biotinylation tag kept; immobilised on streptavidin plates
T1 sequence (Q9ULY5 74-219): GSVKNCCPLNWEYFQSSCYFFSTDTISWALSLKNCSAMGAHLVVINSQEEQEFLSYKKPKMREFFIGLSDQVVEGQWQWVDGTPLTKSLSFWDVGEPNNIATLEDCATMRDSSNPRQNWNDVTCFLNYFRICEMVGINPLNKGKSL

| SMILES | Ki |
| --- | --- |
| CCCCCC(=O)OC[C@H]1O[C@H](O[C@H]2O[C@H](COC(=O)CCCCC)[C@@H](O)[C@H](O)[C@H]2O)[C@H](O)[C@@H](O)[C@@H]1O [dihexanoate derivative] | 12.5 µM |
| CCCCCC(=O)OC[C@H]1O[C@H](O[C@H]2O[C@H](CO)[C@@H](O)[C@H](O)[C@H]2O)[C@H](O)[C@@H](O)[C@@H]1O [monohexanoate derivative] | 184 ± 6 µM |
| CCCCCCCC(=O)OC[C@H]1O[C@H](O[C@H]2O[C@H](CO)[C@@H](O)[C@H](O)[C@H]2O)[C@H](O)[C@@H](O)[C@@H]1O [monooctanoyl trehalose] | 45 ± 4 µM |
